Measurements from patent US8940304B2, “Monoclonal antibodies against the PBP2-A protein and homologous sequences for the treatment of infections by and immunodiagnostics of bacteria of the firmicutes phylum” (priority 2009, dated 2015).

Experiments:
CEB-MRSA = experiment: Comparative in vivo protection antibody versus vancomycin, renal quantification, Assay I; set-up: species or system Staphylococcus aureus
Description: Four groups of female 8-week Balb/C mice (4 animals per group) received an infective dose of 6.0×10^7 bacteria (CEB-MRSA) by intraperitoneal route. The animals received doses of purified monoclonal antibody (MAB), vancomycin, MAB+vancomycin, and negative control, according to the groups below:
group 1: MAB (400 micrograms) (first day)
group 2: vancomycin (150 micrograms, intramuscular route, 12/12 hours)
group 3: vancomycin+MAB (350 micrograms) (1 day after infection)
The first doses of antibody and vancomycin were administered 4 hours after the administration of the infective dose. The animals were subjected to euthanasia in the fourth day, and the kidneys were aseptically removed and subjected to renal qualification, according to what was previously described.
In this study, the animals were infected and the administration of the antimicrobial or monoclonal antibodies was started just after four hours of infection. The study was conducted with three distinct groups: one treated with vancomycin, other treated with monoclonal antibodies, and a third one with simultaneous administration of antimicrobial+antibodies. Vancomycin doses were adjusted and administered in a way similar to the cases of infections in humans (500 mg every 12 hours).

CEB MRSA = experiment: Comparative in vivo protection antibody versus vancomycin, renal quantification, Assay II; set-up: species or system Staphylococcus aureus; details: antibody 500 μg
Description: This assay was performed in the same way as the previous one, but, with a lower infective dose (7.0×10^6 bacteria), with the group 1 being treated with 500 micrograms of purified monoclonal antibody; group 2 being treated with vancomycin (150 micrograms, intramuscular route, 12/12 hours; 5 doses); group 3 being treated with vancomycin+500 micrograms of monoclonal antibody; and group 4 being control (non-treated animals).

Q: For `CN[C@H](CC(C)C)C(=O)N[C@H]1C(=O)N[C@@H](CC(N)=O)C(=O)N[C@H]2C(=O)N[C@H]3C(=O)N[C@H](C(=O)N[C@H](C(=O)O)c4cc(O)cc(O)c4-c4cc3ccc4O)[C@H](O)c3ccc(c(Cl)c3)Oc3cc2cc(c3O[C@@H]2O[C@H](CO)[C@@H](O)[C@H](O)[C@H]2O[C@H]2C[C@](C)(N)[C@H](O)[C@H](C)O2)Oc2ccc(cc2Cl)[C@H]1O` [vancomycin], which “reduction in the quantity of bacteria present in the kidneys versus non-treated animals” value (CEB-MRSA; Assay I: 6.0×10^7 bacteria CEB MRSA IP, treatment from 4 hours after infection, three days after infection, vancomycin every 12 hours (5 doses)) is on record?
A: around 15 times

Q: And the “bacteria recovered from kidneys, mean of group” value (CEB-MRSA; Assay I: 6.0×10^7 bacteria CEB MRSA, antibody 400 μg, vancomycin 5 doses, antibody (300 μg)+vancomycin)?
A: 172,250 bacteria

Q: What about the “bacteria recovered from kidneys, mean of group” value (CEB MRSA; Assay II: 7.0×10^6 bacteria CEB MRSA, vancomycin every 12 hours (5 doses), antibody (500 μg)+vancomycin) of the same molecule?
A: 720 bacteria

Q: What about the “reduction of bacteria in kidneys versus non-treated animals” value (CEB MRSA; Assay II: lower infective dose 7.0×10^6 bacteria CEB MRSA, vancomycin 5 doses, combination) of the same molecule?
A: 35 times
